According to ChEMBL document CHEMBL4396937, “Synthesis of new triazole fused imidazo[2,1-b]thiazole hybrids with emphasis on Staphylococcus aureus virulence factors” (Bioorg Med Chem Lett, 2019):
In brackets after ≈: the same amount, converted by molar mass.

How the values were obtained:
Pseudomonas aeruginosa [1] = experiment: Antibiofilm activity against Pseudomonas aeruginosa MTCC 2453 assessed as inhibition of biofilm formation by crystal violet staining-based microtitre plate assay; format: functional, organism-based
Staphylococcus aureus [2] = experiment: Antibacterial activity against Staphylococcus aureus MTCC 96 assessed as reduction in bacterial growth incubated for 24 hrs by agar well diffusion method; format: functional; details: MTCC 96, 24 h
Raoultella planticola [3] = experiment: Bactericidal activity against Klebsiella planticola MTCC 530 assessed as reduction in bacterial survival incubated for 24 hrs followed by transfer of microbial suspension to agar plates and measured at 24 hrs post transfer by agar well diffusion method; format: functional; details: MTCC 530, 24 h
Staphylococcus aureus [4] = experiment: Bactericidal activity against Staphylococcus aureus MTCC 96 assessed as reduction in bacterial survival incubated for 24 hrs followed by transfer of microbial suspension to agar plates and measured at 24 hrs post transfer by agar well diffusion method; format: functional; details: MTCC 96, 24 h
Escherichia coli [5] = experiment: Antibiofilm activity against Escherichia coli MTCC 739 assessed as inhibition of biofilm formation by crystal violet staining-based microtitre plate assay; format: functional, organism-based
Raoultella planticola [6] = experiment: Antibiofilm activity against Klebsiella planticola MTCC 530 assessed as inhibition of biofilm formation by crystal violet staining-based microtitre plate assay; format: functional, organism-based
Staphylococcus aureus [7] = experiment: Bactericidal activity against Staphylococcus aureus MLS-16 MTCC 2940 assessed as reduction in bacterial survival incubated for 24 hrs followed by transfer of microbial suspension to agar plates and measured at 24 hrs post transfer by agar well diffusion method; format: functional; details: MLS-16 MTCC 2940, 24 h
Candida albicans [8] = experiment: Fungicidal activity against Candida albicans MTCC 3017 assessed as reduction in fungal survival incubated for 24 hrs followed by transfer of microbial suspension to agar plates and measured at 24 hrs post transfer by agar well diffusion method; format: functional; details: MTCC 3017, 24 h
Micrococcus luteus [9] = experiment: Antibiofilm activity against Micrococcus luteus MTCC 2470 assessed as inhibition of biofilm formation by crystal violet staining-based microtitre plate assay; format: functional, organism-based
Micrococcus luteus [10] = experiment: Antibacterial activity against Micrococcus luteus MTCC 2470 assessed as reduction in bacterial growth incubated for 24 hrs by agar well diffusion method; format: functional; details: MTCC 2470, 24 h
Escherichia coli [11] = experiment: Antibacterial activity against Escherichia coli MTCC 739 assessed as reduction in bacterial growth incubated for 24 hrs by agar well diffusion method; format: functional; details: MTCC 739, 24 h
Micrococcus luteus [12] = experiment: Bactericidal activity against Micrococcus luteus MTCC 2470 assessed as reduction in bacterial survival incubated for 24 hrs followed by transfer of microbial suspension to agar plates and measured at 24 hrs post transfer by agar well diffusion method; format: functional; details: MTCC 2470, 24 h
MRC5 = experiment: Cytotoxicity against human MRC5 cells assessed as reduction in cell viability incubated for 48 hrs by MTT assay; format: cell-based; details: MRC5, 48 h
Candida albicans [13] = experiment: Antifungal activity against Candida albicans MTCC 3017 assessed as reduction in fungal growth incubated for 24 hrs by agar well diffusion method; format: functional; details: MTCC 3017, 24 h
Staphylococcus aureus [14] = experiment: Antibiofilm activity against Staphylococcus aureus MTCC 96 assessed as inhibition of biofilm formation by crystal violet staining-based microtitre plate assay; format: functional, organism-based
Pseudomonas aeruginosa [15] = experiment: Antibacterial activity against Pseudomonas aeruginosa MTCC 2453 assessed as reduction in bacterial growth incubated for 24 hrs by agar well diffusion method; format: functional; details: MTCC 2453, 24 h
Staphylococcus aureus [16] = experiment: Antibacterial activity against Staphylococcus aureus MLS-16 MTCC 2940 assessed as reduction in bacterial growth incubated for 24 hrs by agar well diffusion method; format: functional; details: MLS-16 MTCC 2940, 24 h
Bacillus subtilis [17] = experiment: Antibiofilm activity against Bacillus subtilis MTCC 121 assessed as inhibition of biofilm formation by crystal violet staining-based microtitre plate assay; format: functional, organism-based
Bacillus subtilis [18] = experiment: Antibacterial activity against Bacillus subtilis MTCC 121 assessed as reduction in bacterial growth incubated for 24 hrs by agar well diffusion method; format: functional; details: MTCC 121, 24 h
Pseudomonas aeruginosa [19] = experiment: Bactericidal activity against Pseudomonas aeruginosa MTCC 2453 assessed as reduction in bacterial survival incubated for 24 hrs followed by transfer of microbial suspension to agar plates and measured at 24 hrs post transfer by agar well diffusion method; format: functional; details: MTCC 2453, 24 h
Bacillus subtilis [20] = experiment: Bactericidal activity against Bacillus subtilis MTCC 121 assessed as reduction in bacterial survival incubated for 24 hrs followed by transfer of microbial suspension to agar plates and measured at 24 hrs post transfer by agar well diffusion method; format: functional; details: MTCC 121, 24 h
Escherichia coli [21] = experiment: Bactericidal activity against Escherichia coli MTCC 739 assessed as reduction in bacterial survival incubated for 24 hrs followed by transfer of microbial suspension to agar plates and measured at 24 hrs post transfer by agar well diffusion method; format: functional; details: MTCC 739, 24 h
Staphylococcus aureus [22] = experiment: Antibiofilm activity against Staphylococcus aureus MLS-16 MTCC 2940 assessed as inhibition of biofilm formation by crystal violet staining-based microtitre plate assay; format: functional, organism-based
Raoultella planticola [23] = experiment: Antibacterial activity against Klebsiella planticola MTCC 530 assessed as reduction in bacterial growth incubated for 24 hrs by agar well diffusion method; format: functional; details: MTCC 530, 24 h

Row | Structure (SMILES) | IC50 (Pseudomonas aeruginosa [1]) | MIC (Staphylococcus aureus [2]) | MBC (Raoultella planticola [3]) | MBC (Staphylococcus aureus [4]) | IC50 (Escherichia coli [5]) | IC50 (Raoultella planticola [6]) | MBC (Staphylococcus aureus [7]) | MFC (Candida albicans [8]) | IC50 (Micrococcus luteus [9]) | MIC (Micrococcus luteus [10]) | MIC (Escherichia coli [11]) | MBC (Micrococcus luteus [12]) | IC50 (MRC5) | MIC (Candida albicans [13]) | IC50 (Staphylococcus aureus [14]) | MIC (Pseudomonas aeruginosa [15]) | MIC (Staphylococcus aureus [16]) | IC50 (Bacillus subtilis [17]) | MIC (Bacillus subtilis [18]) | MBC (Pseudomonas aeruginosa [19]) | also measured
1 | O=C(c1cn(-c2ccc(Cl)cc2)nn1)c1c(-c2ccc(Cl)cc2)nc2sccn12 | 19.3 µg/mL (≈ 43.8 µM) | 3.9 µg/mL (≈ 8.86 µM) | 7.8 µg/mL (≈ 17.7 µM) | 7.8 µg/mL (≈ 17.7 µM) | 14 µg/mL (≈ 31.8 µM) | 16.8 µg/mL (≈ 38.2 µM) | 15.6 µg/mL (≈ 35.4 µM) | 15.6 µg/mL (≈ 35.4 µM) | 13.7 µg/mL (≈ 31.1 µM) | 3.9 µg/mL (≈ 8.86 µM) | 3.9 µg/mL (≈ 8.86 µM) | 7.8 µg/mL (≈ 17.7 µM) | 24.2 µg/mL (≈ 55 µM) | 7.8 µg/mL (≈ 17.7 µM) | 18.4 µg/mL (≈ 41.8 µM) | 3.9 µg/mL (≈ 8.86 µM) | 7.8 µg/mL (≈ 17.7 µM) | 13.2 µg/mL (≈ 30 µM) | 3.9 µg/mL (≈ 8.86 µM) | 7.8 µg/mL (≈ 17.7 µM) | MBC (Bacillus subtilis [20]): 7.8 µg/mL (≈ 17.7 µM); MBC (Escherichia coli [21]): 7.8 µg/mL (≈ 17.7 µM); IC50 (Staphylococcus aureus [22]): 11.9 µg/mL (≈ 27 µM); MIC (Raoultella planticola [23]): 3.9 µg/mL (≈ 8.86 µM)
2 | O=C(c1cn(-c2ccc(Br)cc2)nn1)c1c(-c2ccc(Cl)cc2)nc2sccn12 | 17.5 µg/mL (≈ 36.1 µM) | 3.9 µg/mL (≈ 8.05 µM) | 15.6 µg/mL (≈ 32.2 µM) | 7.8 µg/mL (≈ 16.1 µM) | 16.2 µg/mL (≈ 33.4 µM) | 20.5 µg/mL (≈ 42.3 µM) | 15.6 µg/mL (≈ 32.2 µM) | 15.6 µg/mL (≈ 32.2 µM) | 16 µg/mL (≈ 33 µM) | 3.9 µg/mL (≈ 8.05 µM) | 3.9 µg/mL (≈ 8.05 µM) | 7.8 µg/mL (≈ 16.1 µM) | 37.3 µg/mL (≈ 76.9 µM) | 7.8 µg/mL (≈ 16.1 µM) | 21.3 µg/mL (≈ 43.9 µM) | 3.9 µg/mL (≈ 8.05 µM) | 7.8 µg/mL (≈ 16.1 µM) | 13.5 µg/mL (≈ 27.8 µM) | 3.9 µg/mL (≈ 8.05 µM) | 7.8 µg/mL (≈ 16.1 µM) | MBC (Bacillus subtilis [20]): 7.8 µg/mL (≈ 16.1 µM); MBC (Escherichia coli [21]): 7.8 µg/mL (≈ 16.1 µM); IC50 (Staphylococcus aureus [22]): 14 µg/mL (≈ 28.9 µM); MIC (Raoultella planticola [23]): 3.9 µg/mL (≈ 8.05 µM)
3 | O=C(c1cn(-c2ccc(F)cc2Br)nn1)c1c(-c2ccccc2)nc2sccn12 | 18.2 µg/mL (≈ 38.9 µM) | 1.9 µg/mL (≈ 4.06 µM) | 7.8 µg/mL (≈ 16.7 µM) | 3.9 µg/mL (≈ 8.33 µM) | 18.2 µg/mL (≈ 38.9 µM) | 17.3 µg/mL (≈ 36.9 µM) | 3.9 µg/mL (≈ 8.33 µM) | 15.6 µg/mL (≈ 33.3 µM) | 12.3 µg/mL (≈ 26.3 µM) | 3.9 µg/mL (≈ 8.33 µM) | 1.9 µg/mL (≈ 4.06 µM) | 7.8 µg/mL (≈ 16.7 µM) | 48.2 µg/mL (≈ 103 µM) | 7.8 µg/mL (≈ 16.7 µM) | 13.5 µg/mL (≈ 28.8 µM) | 3.9 µg/mL (≈ 8.33 µM) | 1.9 µg/mL (≈ 4.06 µM) | 13.5 µg/mL (≈ 28.8 µM) | 3.9 µg/mL (≈ 8.33 µM) | 7.8 µg/mL (≈ 16.7 µM) | MBC (Bacillus subtilis [20]): 7.8 µg/mL (≈ 16.7 µM); MBC (Escherichia coli [21]): 3.9 µg/mL (≈ 8.33 µM); IC50 (Staphylococcus aureus [22]): 12.8 µg/mL (≈ 27.3 µM); MIC (Raoultella planticola [23]): 3.9 µg/mL (≈ 8.33 µM)
